# Target: T1, EHMT2 (Homo sapiens, UniProt Q96KQ7)
# T1 construct: host or cells: MDA-MB-231
# T1 sequence (Q96KQ7 1-1210): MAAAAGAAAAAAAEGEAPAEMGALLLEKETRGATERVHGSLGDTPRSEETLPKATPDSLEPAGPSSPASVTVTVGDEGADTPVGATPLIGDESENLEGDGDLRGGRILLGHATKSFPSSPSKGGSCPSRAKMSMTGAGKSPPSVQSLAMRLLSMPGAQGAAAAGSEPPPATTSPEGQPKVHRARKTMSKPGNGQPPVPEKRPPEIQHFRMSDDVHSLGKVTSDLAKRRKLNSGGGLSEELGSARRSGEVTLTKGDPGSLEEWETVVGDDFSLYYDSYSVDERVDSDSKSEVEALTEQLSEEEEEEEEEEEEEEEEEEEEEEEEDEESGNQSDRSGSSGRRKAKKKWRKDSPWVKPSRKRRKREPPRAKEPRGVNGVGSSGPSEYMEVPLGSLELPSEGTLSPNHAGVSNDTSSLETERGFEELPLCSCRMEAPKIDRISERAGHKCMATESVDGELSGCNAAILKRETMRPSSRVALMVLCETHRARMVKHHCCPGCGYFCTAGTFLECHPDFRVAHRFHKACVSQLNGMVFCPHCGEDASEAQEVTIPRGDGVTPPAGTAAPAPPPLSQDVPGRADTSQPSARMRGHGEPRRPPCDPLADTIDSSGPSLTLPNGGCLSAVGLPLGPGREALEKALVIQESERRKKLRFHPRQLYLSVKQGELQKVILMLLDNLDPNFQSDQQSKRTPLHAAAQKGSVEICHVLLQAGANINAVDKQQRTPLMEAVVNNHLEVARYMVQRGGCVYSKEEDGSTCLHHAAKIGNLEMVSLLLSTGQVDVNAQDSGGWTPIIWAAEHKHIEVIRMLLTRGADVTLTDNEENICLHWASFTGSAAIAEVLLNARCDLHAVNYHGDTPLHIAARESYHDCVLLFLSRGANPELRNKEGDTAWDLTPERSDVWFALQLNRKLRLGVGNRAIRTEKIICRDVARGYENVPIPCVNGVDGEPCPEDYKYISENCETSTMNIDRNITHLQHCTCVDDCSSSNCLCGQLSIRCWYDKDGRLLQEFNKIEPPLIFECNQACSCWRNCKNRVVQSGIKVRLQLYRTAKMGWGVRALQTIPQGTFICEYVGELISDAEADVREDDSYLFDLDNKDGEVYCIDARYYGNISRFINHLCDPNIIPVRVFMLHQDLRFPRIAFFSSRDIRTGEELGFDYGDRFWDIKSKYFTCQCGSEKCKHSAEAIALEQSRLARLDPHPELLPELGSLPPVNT
# Assay: MDA-MB-231 H3K9me2 in-cell Western assay (EHMT2 ICW)
# Assay type: cell-based
# Details: Table III; MDA-MB-231 H3K9me2 in-cell Western; read-out: EHMT2 ICW (IC50 μM)
# Procedure, shortened: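 IC50 values came from a variable-slope four-parameter fit on triplicate wells, using % inhibition from the 800/700 nm infrared signal ratio (anti-H3K9me2 versus DRAQ5 DNA stain). Before fixation and immunostaining, MDA-MB-231 cells, 3,000 per well, were exposed to compound for 48 h at 37 °C.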
row,Structure (SMILES),IC50 [µM]
1,"CNc1cc(C)nc(Nc2ccc(OC)c(O[C@H]3C[C@@H](N(C)C)C3)c2)n1 (single isomer, unassigned) [Compound 317, N^2-(3-((1s,3s)-3-(dimethylamino)cyclobutoxy)-4-methoxyphenyl)-N^4,6-dimethylpyrimidine-2,4-diamine]",1 to 10
2,"CNc1ccnc(Nc2ccc(OC)c(OC[C@@H]3CN(C)C[C@H]3C)c2)n1 (single isomer, unassigned) [Compound 438]",> 10
3,"CNc1ccnc(Nc2ccc(OC)c(OC[C@H]3CN(C)C[C@@H]3C)c2)n1 (single isomer, unassigned) [Compound 439]",0.1 to 1
4,"CNc1ccnc(Nc2cccc(COCCN3CCCC3)n2)c1 [Compound 267, N^4-methyl-N^2-(6-((2-(pyrrolidin-1-yl)ethoxy)methyl)pyridin-2-yl)pyridine-2,4-diamine]",> 10
5,"CNc1cc(Nc2cccc(COCCN3CCCC3)n2)ccn1 [Compound 268, N^2-methyl-N^4-(6-((2-(pyrrolidin-1-yl)ethoxy)methyl)pyridin-2-yl)pyridine-2,4-diamine]",> 10
6,CNc1nc(C2CCN(C)CC2)c2cc(OC)c(OCCCN3CCCC3)cc2n1 [Compound 270],0.1 to 1
7,CNc1ccnc(Nc2ccc(OC)c(OCCCN3CC[C@H](F)C3)c2)n1 [Compound 271],> 10
8,"CNc1cc(Nc2ccc(OC)c(OCCCN3CCCC3)c2)ncc1F [Compound 272, 5-fluoro-N^2-(4-methoxy-3-(3-(pyrrolidin-1-yl)propoxy)phenyl)-N^4-methylpyridine-2,4-diamine]",1 to 10
9,CNc1cc(Nc2ccc(OC)c(OCCCN3CCCC3)c2)cc(C(F)(F)F)n1 [Compound 273],> 10
10,CNc1ccnc(Nc2cccc(N3CCC(N)C3=O)c2)n1 (stereo not shown) [Compound 274],> 10
11,CNc1ccnc(Nc2cccc(N3CCC(N(C)C)C3=O)c2)n1 (stereo not shown) [Compound 275],> 10
12,"CNc1ccnc(Nc2cccc(OCC(F)CN3CCCC3)c2)n1 (stereo not shown) [Compound 276, N^2-(3-(2-fluoro-3-(pyrrolidin-1-yl)propoxy)phenyl)-N^4-methylpyrimidine-2,4-diamine]",> 10
13,"CNc1ccnc(Nc2cccc(OCC(F)(F)CN3CCCC3)c2)n1 [Compound 277, N^2-(3-(2,2-difluoro-3-(pyrrolidin-1-yl)propoxy)phenyl)-N^4-methylpyrimidine-2,4-diamine]",> 10
14,COc1ccc(Nc2nccc(NCC3CC(C)(C)NC(C)(C)C3)n2)cc1OCCCN1CCCC1 [Compound 278],1 to 10
15,"CNc1ccnc(Nc2cccc(C(C)OCCN3CCCC3)c2)n1 (stereo not shown) [Compound 279, N^4-methyl-N^2-(3-(1-(2-(pyrrolidin-1-yl)ethoxy)ethyl)phenyl) pyrimidine-2,4-diamine]",> 10
16,"CCN(CC)CCCOc1cc(Nc2nccc(NC)n2)ccc1OC [Compound 280, N^2-(3-(3-(diethylamino)propoxy)-4-methoxyphenyl)-N^4-methylpyrimidine-2,4-diamine]",1 to 10
17,CNc1ccnc(Nc2ccc(OC)c(OCCCN3CCC(S(C)(=O)=O)C3)c2)n1 (stereo not shown) [Compound 282],> 10
18,"CNc1ccnc(Nc2ccc(OC)c(OCCCN3CCC(OC)C3)c2)n1 (stereo not shown) [Compound 283, N^2-(4-methoxy-3-(3-(3-methoxypyrrolidin-1-yl)propoxy)phenyl)-N^4-methylpyrimidine-2,4-diamine]",0.1 to 1
19,CNc1ccnc(Nc2ccc(OC)c(OCCCN3CCC4(COC4)C3)c2)n1 [Compound 284],> 10

row,Structure (SMILES),IC50 [µM]
1,"CNc1ccnc(Nc2ccc(OC)c(OCCCN3CCC(C(F)(F)F)C3)c2)n1 (stereo not shown) [Compound 285, N^2-(4-methoxy-3-(3-(3-(trifluoromethyl)pyrrolidin-1-yl)propoxy)phenyl)-N^4-methylpyrimidine-2,4-diamine]",> 10
2,"CNc1ccnc(Nc2ccc(OC)c(OCCCN3CCC(O)C3)c2)n1 (stereo not shown) [Compound 286, 1-(3-(2-methoxy-5-((4-(methylamino)pyrimidin-2-yl)amino)phenoxy)propyl)pyrrolidin-3-ol]",0.1 to 1
3,"CNc1ccnc(Nc2ccc(OC)c(OCCCN3CCC(C#N)C3)c2)n1 (stereo not shown) [Compound 287, 1-(3-(2-methoxy-5-((4-(methylamino)pyrimidin-2-yl)amino)phenoxy)propyl)pyrrolidine-3-carbonitrile]",> 10
4,"CNc1ccnc(Nc2ccc(OC)c(OCCC3CCCN3C)c2)n1 (stereo not shown) [Compound 288, N^2-(4-methoxy-3-(2-(1-methylpyrrolidin-2-yl)ethoxy)phenyl)-N^4-methylpyrimidine-2,4-diamine]",1 to 10
5,"CNc1ccnc(Nc2ccc(OC)c(OCC3CCCN3C)c2)n1 (stereo not shown) [Compound 289, N^2-(4-methoxy-3-((1-methylpyrrolidin-2-yl)methoxy)phenyl)-N^4-methylpyrimidine-2,4-diamine]",0.1 to 1
6,"CNc1ccnc(Nc2ccc(OC)c(OCCCN3CCCC3C)c2)n1 (stereo not shown) [Compound 290, N^2-(4-methoxy-3-(3-(2-methylpyrrolidin-1-yl)propoxy)phenyl)-N^4-methylpyrimidine-2,4-diamine]",1 to 10
7,"CCNC(=O)c1cc(Nc2nccc(NC)n2)ccn1 [Compound 291, N-ethyl-4-((4-(methylamino)pyrimidin-2-yl)amino)picolinamide]",> 10
8,"CNc1ccnc(Nc2ccc(OC)c(OCCCN3CCC(C)C3)c2)n1 (stereo not shown) [Compound 293, N^2-(4-methoxy-3-(3-(3-methylpyrrolidin-1-yl)propoxy)phenyl)-N^4-methylpyrimidine-2,4-diamine]",1 to 10
9,CNc1ccnc(Nc2cccc3oc(CCN(C)C)nc23)n1 [Compound 295],> 10
10,CNc1ccnc(Nc2cccc(N3CC(N)CC3=O)c2)n1 (stereo not shown) [Compound 296],> 10
11,CNc1ccnc(Nc2cccc(N3CCC(N)C3)c2)n1 (stereo not shown) [Compound 297],> 10
12,"CNc1ccnc(Nc2ccc(OC)c(OCCCN3CC4CC4C3)c2)n1 (stereo not shown) [Compound 298, N^2-(3-(3-(3-azabicyclo[3.1.0]hexan-3-yl)propoxy)-4-methoxyphenyl)-N^4-methylpyrimidine-2,4-diamine]",0.1 to 1
13,"CNc1ccnc(Nc2ccc(OC)c(OC[C@H](O)CN3CCCC3)c2)n1 [Compound 299, (R)-1-(2-methoxy-5-((4-(methylamino)pyrimidin-2-yl)amino)phenoxy)-3-(pyrrolidin-1-yl)propan-2-ol]",0.1 to 1
14,"CNc1ccnc(Nc2ccc(OC)c(OC[C@@H](O)CN3CCCC3)c2)n1 [Compound 300, (S)-1-(2-methoxy-5-((4-(methylamino)pyrimidin-2-yl)amino)phenoxy)-3-(pyrrolidin-1-yl)propan-2-ol]",0.1 to 1
15,"CNc1cc(C)nc(Nc2cc(F)c(OC)c(OCCCN3CCCC3)c2)n1 [Compound 301, N2-(3-fluoro-4-methoxy-5-(3-(pyrrolidin-1-yl)propoxy)phenyl)-N4,6-dimethylpyrimidine-2,4-diamine]",> 10
16,"CNc1cc(C)nc(Nc2cc(OCCCN3CCCC3)c(OC)cc2F)n1 [Compound 302, N^2-(2-fluoro-4-methoxy-5-(3-(pyrrolidin-1-yl)propoxy)phenyl)-N^4,6-dimethylpyrimidine-2,4-diamine]",> 10
17,"CNc1cc(C)nc(Nc2cc(OCCCN3CCCC3)c(OC)cn2)n1 [Compound 303, N^2-(5-methoxy-4-(3-(pyrrolidin-1-yl)propoxy)pyridin-2-yl)-N^4,6-dimethylpyrimidine-2,4-diamine]",1 to 10
18,COc1cnc(Nc2nccc3[nH]ccc23)cc1OCCCN1CCCC1 [Compound 304],0.1 to 1

# Reference: patent publication US20210198277A1, “AMINE-SUBSTITUTED ARYL OR HETEROARYL COMPOUNDS” (Epizyme, Inc., priority 2016, published 2021)
